We go through nine compounds from patent publication US20240109864A1, “SUBSTITUTED PYRAZOLYL PIPERIDINE CARBOXYLIC ACIDS” (BAYER AKTIENGESELLSCHAFT, priority 2020, published 2024).

For this test, the target named is T1, recombinant guanylate cyclase reporter cell line (Rattus norvegicus, UniProt P20595).
T1 construct: expressed in transfected cells
T1 sequence (P20595 1-619): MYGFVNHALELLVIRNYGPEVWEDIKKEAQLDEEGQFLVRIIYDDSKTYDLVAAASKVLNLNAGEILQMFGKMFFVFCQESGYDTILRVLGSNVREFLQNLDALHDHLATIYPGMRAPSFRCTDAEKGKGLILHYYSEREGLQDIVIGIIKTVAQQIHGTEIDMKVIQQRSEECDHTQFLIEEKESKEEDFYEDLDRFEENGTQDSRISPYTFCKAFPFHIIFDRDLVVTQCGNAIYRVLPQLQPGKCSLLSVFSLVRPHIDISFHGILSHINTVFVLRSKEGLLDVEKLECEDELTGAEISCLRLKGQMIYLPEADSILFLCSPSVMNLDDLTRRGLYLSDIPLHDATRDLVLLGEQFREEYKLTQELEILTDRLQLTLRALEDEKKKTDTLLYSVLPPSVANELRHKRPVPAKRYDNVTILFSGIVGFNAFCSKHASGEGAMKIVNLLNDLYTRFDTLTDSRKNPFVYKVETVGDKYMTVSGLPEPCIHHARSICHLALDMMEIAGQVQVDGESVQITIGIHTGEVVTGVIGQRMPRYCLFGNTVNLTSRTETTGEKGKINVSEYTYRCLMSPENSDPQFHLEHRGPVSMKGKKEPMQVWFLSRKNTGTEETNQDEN
T1 sequence (P19686 1-690 partner): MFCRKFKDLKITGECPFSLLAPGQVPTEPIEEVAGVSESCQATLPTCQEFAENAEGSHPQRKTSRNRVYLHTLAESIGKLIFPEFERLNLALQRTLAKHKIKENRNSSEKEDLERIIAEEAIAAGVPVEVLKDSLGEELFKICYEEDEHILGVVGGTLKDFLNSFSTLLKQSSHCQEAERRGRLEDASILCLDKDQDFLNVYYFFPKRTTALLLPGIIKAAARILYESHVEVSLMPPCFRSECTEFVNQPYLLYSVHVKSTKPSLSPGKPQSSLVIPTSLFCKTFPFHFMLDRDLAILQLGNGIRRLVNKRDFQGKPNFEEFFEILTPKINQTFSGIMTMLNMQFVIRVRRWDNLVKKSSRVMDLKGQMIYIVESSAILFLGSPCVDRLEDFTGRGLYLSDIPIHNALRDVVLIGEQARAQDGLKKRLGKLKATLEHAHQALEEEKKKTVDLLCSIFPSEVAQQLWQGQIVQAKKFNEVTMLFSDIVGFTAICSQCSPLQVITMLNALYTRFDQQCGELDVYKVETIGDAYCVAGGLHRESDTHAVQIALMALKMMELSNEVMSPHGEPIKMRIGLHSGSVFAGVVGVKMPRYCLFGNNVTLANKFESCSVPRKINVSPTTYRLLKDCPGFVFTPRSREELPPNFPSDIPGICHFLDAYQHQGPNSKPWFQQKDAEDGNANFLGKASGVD
As to the kind of experiment: Effect on a recombinant guanylate cyclase reporter cell line. The class given is cell-based. The conditions noted are these: in some cases mean values from individual determinations; for MEC: MEC = minimum effective concentration; for EC50: half maximal effective concentration. Here is the method:
The cellular activity of the compounds according to the invention was determined using a recombinant guanylate cyclase reporter cell line, as described in F. Wunder et al., Anal. Biochem. 339, 104-112 (2005).

Where a name gives a salt, the structure may show the parent alone.

The EC50 is the concentration needed to bring the measured effect to its halfway point. As to `COC(=O)N1CCN(c2ccc(-c3ccc(Cl)cc3N3CCCC(n4ncc(C(=O)O)c4C(F)(F)F)C3)cc2)CC1` (single isomer, unassigned) [Example 54, 1-[1-[5-Chloro-2-[4-(4-methoxycarbonylpiperazin-1-yl)phenyl]phenyl]-3-piperidyl]-5-(trifluoromethyl)pyrazole-4-carboxylic acid], the MEC amounted to 3.0 nM and the EC50 came out at 11.1 nM.

Turning to `O=C(O)c1cnn(C2CCCN(c3cc(Cl)ccc3-c3ccc(C4CCN(C(=O)C5CC5)CC4)cc3)C2)c1C(F)(F)F` (single isomer, unassigned) [Example 84, 1-[1-[5-Chloro-2-[4-[1-(cyclopropanecarbonyl)-4-piperidyl]phenyl]phenyl]-3-piperidyl]-5-(trifluoromethyl)pyrazole-4-carboxylic acid hydrochloride], the EC50 was found to be 2.5 nM. The MEC (hydrochloride) is recorded as 0.3 nM.

For the compound `CC(F)(F)CN1CCN(c2ccc(-c3ccc(Cl)cc3N3CCCC(n4ncc(C(=O)O)c4C(F)(F)F)C3)cc2)CC1` (single isomer, unassigned) [Example 11, 1-[1-[5-Chloro-2-[4-[4-(2,2-difluoropropyl)piperazin-1-yl]phenyl]phenyl]-3-piperidyl]-5-(trifluoromethyl)pyrazole-4-carboxylic acid hydrochloride], the MEC turned out to be 0.3 nM and the concentration for a half-maximal effect (EC50) amounted to 1.4 nM.

As for `CC(C)(F)C(=O)N1CCN(c2ccc(-c3ccc(Cl)cc3N3CCCC(n4ncc(C(=O)O)c4C(F)(F)F)C3)cc2)CC1` (single isomer, unassigned) [Example 39, 1-[1-[5-Chloro-2-[4-[4-(2-fluoro-2-methyl-propanoyl)piperazin-1-yl]phenyl]phenyl]-3-piperidyl]-5-(trifluoromethyl)pyrazole-4-carboxylic acid], the MEC worked out at 10.0 nM and the EC50 came out at 59 nM.

As to `O=C(O)c1cnn(C2CCCN(c3cc(Cl)ccc3-c3ccc(N4CCN(CC(F)F)CC4)cc3)C2)c1C(F)(F)F` (single isomer, unassigned) [Example 13, 1-[1-[5-Chloro-2-[4-[4-(2,2-difluoroethyl)piperazin-1-yl]phenyl]phenyl]-3-piperidyl]-5-(trifluoromethyl)pyrazole-4-carboxylic acid], the MEC is given as 3.0 nM and the 50% effective concentration (EC50) was 54 nM.

Regarding `O=C(O)c1cnn(C2CCCN(c3cc(Cl)ccc3-c3ccc(N4CCN(CC(F)(F)F)CC4)nc3)C2)c1C(F)(F)F` (single isomer, unassigned) [Example 77, 1-[1-[5-Chloro-2-[6-[4-(2,2,2-trifluoroethyl)piperazin-1-yl]-3-pyridyl]phenyl]-3-piperidyl]-5-(trifluoromethyl)pyrazole-4-carboxylic acid], the MEC was 30.0 nM and the EC50 came out at 82.5 nM.

Regarding `CCC(=O)N1CCN(c2ccc(-c3ccc(Cl)cc3N3CCCC(n4ncc(C(=O)O)c4C(F)(F)F)C3)cc2)CC1` (single isomer, unassigned) [Example 37, 1-[1-[5-Chloro-2-[4-(4-propanoylpiperazin-1-yl)phenyl]phenyl]-3-piperidyl]-5-(trifluoromethyl)pyrazole-4-carboxylic acid], the MEC amounted to 3.0 nM and the EC50 worked out at 15.5 nM.

Regarding `CC(C)COC(=O)N1CCN(c2ccc(-c3ccc(Cl)cc3N3CCCC(n4ncc(C(=O)O)c4C(F)(F)F)C3)cc2)CC1` (single isomer, unassigned) [Example 59, 1-[1-[5-Chloro-2-[4-(4-isobutoxycarbonylpiperazin-1-yl)phenyl]phenyl]-3-piperidyl]-5-(trifluoromethyl)pyrazole-4-carboxylic acid], the MEC worked out at 10.0 nM and the EC50 came out at 40.5 nM.

Consider `CCCC(=O)N1CCN(c2ccc(-c3ccc(Cl)cc3N3CCCC(n4ncc(C(=O)O)c4C(F)(F)F)C3)cc2)CC1` (single isomer, unassigned) [Example 40, 1-[1-[2-[4-(4-Butanoylpiperazin-1-yl)phenyl]-5-chloro-phenyl]-3-piperidyl]-5-(trifluoromethyl)pyrazole-4-carboxylic acid], for which the MEC was found to be 3.0 nM and the EC50 was found to be 19 nM.
